Columns and labels:
[1] = tested on: Na+-dependent Cl-/HCO3- exchanger (NCBE); experiment: Inhibition of the Na+-dependent Cl-/HCO3- exchanger (NCBE) in human endothelial cells (BCECF fluorescence, FLIPR, pHi recovery); format: cell-based; details: inhibitor concentration 10 μM; human endothelial cells (ECV-304); 50 μM HOE 642 present; 35° C., 2 minutes
Protocol: Inhibition of the Na^+-dependent Cl^−/HCO3^− Exchanger (NCBE) in Human Endothelial Cells
Human endothelial cells (ECV-304) were detached from culture bottles with the aid of trypsin/EDTA buffer (0.05/0.02% in phosphate buffer) and, after centrifugation (100 g, 5 min), taken up in a buffered salt solution (mmol/l: 115 NaCl, 20 NH4Cl, 5 KCl, 1 CaCl2, 1 MgSO4, 20 N-(2-hydroxyethyl)piperazine-N-2-ethanesulfonic acid (HEPES), 5 glucose and 1 g/l of bovine serum albumin; pH 7.4). This cell suspension was incubated at 37° C. for 20 min with 5 μM BCECF-acetoxymethyl ester. The cells were then washed and resuspended in a sodium- and bicarbonate-free buffer solution (mmol/l: 5 HEPES, 133.8 choline chloride, 4.7 KCl, 1.25 MgCl2, 0.97 K2HPO4, 0.23 KH2PO4, 5 glucose; pH 7.4).
For subsequent fluorescence measurement in an FLIPR (Fluorescent Imaging Plate Reader) 100 μl of this cell suspension having 20,000 cells in each case were pipetted per well into a 96-well microtiter plate and this microtiter plate was centrifuged (100 g, 5 min).
In the FLIPR, 100 μl of buffer solution in each case were then removed from a further pretreated microtiter plate and pipetted into each of the 96 wells of the measurement plate. A bicarbonate- and sodium-containing buffer solution (mmol/l: 5 HEPES, 93.8 NaCl, 40 NaHCO3, 4.7 KCl, 1.25 CaCl2, 1.25 MgCl2, 0.97 Na2HPO4, 0.23 NaH2PO4, 5 glucose; pH 7.4) which contained 50 μM HOE 642 was used for a 100% control, i.e. a recovery of the intracellular pH (pHi) via the NCBE. For a 0% control, i.e. no pHi recovery at all, a bicarbonate-free, sodium-containing buffer solution (mmol/l: 5 HEPES, 133.8 NaCl, 4.7 KCl, 1.25 CaCl2, 1.25 MgCl2, 0.97 Na2HPO4, 0.23 NaH2PO4, 5 glucose; pH 7.4) was employed, to which 50 μM HOE 642 were likewise added. The compounds according to the invention were added to the sodium- and bicarbonate-containing solution in various concentrations.
After addition of the buffer solutions to the dye-loaded, acidified cells in the measurement plate, the rise in the fluorescence intensity, which corresponded to a rise in the pHi, in each well of the microtiter plate was determined. The kinetics were in this case recorded at 35° C. for a period of 2 minutes.
The increase in the fluorescence intensities for different concentrations of the compounds according to the invention was related to the two controls and from this the inhibitory action of the substances was determined.

Structure (SMILES) | melting point | Residual activity of the NCBE at an inhibitor concentration of 10 μM (in %) [1]
COCCOc1nc(-c2ccccc2)n(Cc2ccc(-c3ccccc3S(=O)(=O)NC#N)cc2S(C)(=O)=O)c1C=O [Example 1, 4′-[5-Formyl-4-(2-methoxyethoxy)-2-phenylimidazol-1-ylmethyl]-3′-methanesulfonylbiphenyl-2-sulfonylcyanamide] | > 270 °C | 9.8%
COCCOc1nc(-c2ccccc2)n(Cc2ccc(-c3ccccc3S(=O)(=O)NC#N)cc2Cl)c1C=O [Example 2, 3′-Chloro-4′-[5-formyl-4-(2-methoxyethoxy)-2-phenylimidazol-1-ylmethyl]-biphenyl-2-sulfonylcyanamide] | 195 °C (dec.) | 18.9%
COCCOc1nc(-c2ccc(C(C)C)cc2)n(Cc2ccc(-c3ccccc3S(=O)(=O)NC#N)cc2)c1C=O [Example 3, 4′-[5-Formyl-2-(4-isopropylphenyl)-4-(2-methoxyethoxy)imidazol-1-ylmethyl]biphenyl-2-sulfonylcyanamide] | – | 29.6%
COCCOc1cc(-c2ccccc2S(=O)(=O)NC#N)ccc1Cn1c(-c2ccccc2)nc(OCCOC)c1C=O [Example 4, 4′-[5-Formyl-4-(2-methoxyethoxy)-2-phenylimidazol-1-ylmethyl]-3′-(2-methoxyethoxy)biphenyl-2-sulfonylcyanamide] | 162 °C | 13.5%
